Experimental findings from ChEMBL document CHEMBL4184310, “Structure-based design and structure-activity relationships of 1,2,3,4-tetrahydroisoquinoline derivatives as potential PDE4 inhibitors” (Bioorg Med Chem Lett, 2018) are described below.

In data set [1] the target is 3',5'-cyclic-AMP phosphodiesterase 4D (Homo sapiens, UniProt Q08499). In words: Inhibition of human U937 cells-derived PDE4D using [3H]-cAMP as substrate after 30 mins.
Data set [2] addresses 3',5'-cyclic-AMP phosphodiesterase 4B (Homo sapiens, UniProt Q07343). In words: Inhibition of human U937 cells-derived PDE4B using [3H]-cAMP as substrate after 30 mins.
A further data set relates to Rattus norvegicus. In words: Anti-inflammatory activity in Sprague-Dawley rat model of LPS-induced asthma/COPD assessed as inhibition of neutrophilia in BALF at 10 mg/kg, po administered 30 mins prior to LPS challenge for 40 mins relative to control. The format is functional.
Another data set has as its system Mus musculus. Put plainly: Anti-inflammatory activity in Swiss albino mouse model of sepsis assessed as inhibition of LPS-induced TNFalpha release at 10 mg/kg, po administered 30 mins prior to LPS challenge for 90 mins by ELISA relative to control. Format: functional. A general note: ELISA stands for enzyme-linked immunosorbent assay.
The nature of data set [3]: Inhibition of PDE4 in human PBMC assessed as reduction in LPS-stimulated TNFalpha release preincubated for 30 mins followed by LPS stimulation for 18 hrs by TR-FRET assay. Format: cell-based. For orientation: TR-FRET usually uses a lanthanide donor and a delayed reading to cut background.
Data set [4] has as its target T1, cGMP-dependent 3',5'-cyclic phosphodiesterase (Homo sapiens, UniProt O00408). Put plainly: Inhibition of human PDE2A.
Data set [5] addresses T2, Dual specificity calcium/calmodulin-dependent 3',5'-cyclic nucleotide phosphodiesterase 1A (Homo sapiens, UniProt P54750). Put plainly: Inhibition of human PDE1A.
For data set [6], the target named is T3, cAMP and cAMP-inhibited cGMP 3',5'-cyclic phosphodiesterase 10A (Homo sapiens, UniProt Q9Y233). In words: Inhibition of human PDE10A2 at 50 uM relative to control.
T3 sequence (Q9Y233 whole entry): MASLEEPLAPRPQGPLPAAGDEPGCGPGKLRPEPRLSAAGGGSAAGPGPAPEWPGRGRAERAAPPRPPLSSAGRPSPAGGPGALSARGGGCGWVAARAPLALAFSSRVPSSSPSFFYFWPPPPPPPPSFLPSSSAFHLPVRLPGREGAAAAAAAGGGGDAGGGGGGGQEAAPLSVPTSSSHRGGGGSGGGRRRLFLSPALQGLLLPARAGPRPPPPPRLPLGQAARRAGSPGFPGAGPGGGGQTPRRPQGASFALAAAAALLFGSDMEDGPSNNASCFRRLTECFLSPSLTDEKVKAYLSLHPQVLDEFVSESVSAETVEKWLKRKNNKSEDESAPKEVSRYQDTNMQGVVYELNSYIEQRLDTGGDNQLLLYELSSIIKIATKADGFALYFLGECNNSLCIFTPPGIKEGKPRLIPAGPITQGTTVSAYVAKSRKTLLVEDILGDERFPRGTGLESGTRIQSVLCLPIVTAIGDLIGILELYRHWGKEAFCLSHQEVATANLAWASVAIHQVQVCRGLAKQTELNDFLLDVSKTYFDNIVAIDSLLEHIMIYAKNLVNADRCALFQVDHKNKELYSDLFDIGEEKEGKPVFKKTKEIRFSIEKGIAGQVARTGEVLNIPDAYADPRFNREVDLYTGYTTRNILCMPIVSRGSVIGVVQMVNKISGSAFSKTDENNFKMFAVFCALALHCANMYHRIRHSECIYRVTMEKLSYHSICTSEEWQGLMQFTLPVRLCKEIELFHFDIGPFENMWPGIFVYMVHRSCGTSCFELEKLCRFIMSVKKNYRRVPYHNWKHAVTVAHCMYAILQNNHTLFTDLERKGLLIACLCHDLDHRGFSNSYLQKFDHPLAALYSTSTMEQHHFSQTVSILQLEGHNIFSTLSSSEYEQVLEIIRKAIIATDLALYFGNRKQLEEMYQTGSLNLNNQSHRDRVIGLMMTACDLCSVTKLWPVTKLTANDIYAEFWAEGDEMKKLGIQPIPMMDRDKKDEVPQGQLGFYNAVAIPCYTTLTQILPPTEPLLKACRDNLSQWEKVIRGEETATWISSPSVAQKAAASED
The target of data set [7] is T4, Dual 3',5'-cyclic-AMP and -GMP phosphodiesterase 11A (Homo sapiens, UniProt Q9HCR9). Put plainly: Inhibition of human PDE11A at 50 uM relative to control.
Data set [8] has as its target T5, High affinity cAMP-specific and IBMX-insensitive 3',5'-cyclic phosphodiesterase 8A (Homo sapiens, UniProt O60658). Put plainly: Inhibition of human PDE8A1 at 50 uM relative to control.
For data set [9], the target named is T6, High affinity cGMP-specific 3',5'-cyclic phosphodiesterase 9A (Homo sapiens, UniProt O76083). Put plainly: Inhibition of human PDE9A2 at 50 uM relative to control.
The target in data set [10] is T7, High affinity 3',5'-cyclic-AMP phosphodiesterase 7A (Homo sapiens, UniProt Q13946). Put plainly: Inhibition of human PDE7A at 50 uM relative to control.
The target of data set [11] is T8, Cone cGMP-specific 3',5'-cyclic phosphodiesterase subunit alpha' (Homo sapiens, UniProt P51160). In words: Inhibition of human PDE6C at 50 uM relative to control.
For data set [12], the target named is T9, cGMP-specific 3',5'-cyclic phosphodiesterase (Homo sapiens, UniProt O76074). Put plainly: Inhibition of human PDE5A at 50 uM relative to control.
The nature of data set [13]: Stability in rat plasma assessed as parent compound remaining after 4 hrs. The format is ADME, cell-free. As to conditions: read-out: Stability.
In data set [14] the target is T10, cGMP-inhibited 3',5'-cyclic phosphodiesterase 3B (Homo sapiens, UniProt Q13370). Put plainly: Inhibition of human PDE3B at 50 uM relative to control.
Data set [15] deals with T1, cGMP-dependent 3',5'-cyclic phosphodiesterase. Put plainly: Inhibition of human PDE2A at 50 uM relative to control.
The target in data set [16] is T2, Dual specificity calcium/calmodulin-dependent 3',5'-cyclic nucleotide phosphodiesterase 1A. In words: Inhibition of human PDE1A at 50 uM relative to control.
The species named for data set [17] is Homo sapiens. In words: Selectivity ratio of IC50 for human U937 cells-derived PDE4D to IC50 for human U937 cells-derived PDE4B.
The species entered for data set [18] is Homo sapiens. In words: Potency index, ratio of rolipram IC50 to compound IC50 for inhibition of PDE4 in human PBMC.
Data set [19] is described as follows: Stability in rat plasma assessed as parent compound remaining after 8 hrs. The format is ADME, cell-free. The following applies: read-out: Stability.
Data set [20] addresses T10, cGMP-inhibited 3',5'-cyclic phosphodiesterase 3B. In words: Inhibition of human PDE3B.
Data set [21] concerns the target T9, cGMP-specific 3',5'-cyclic phosphodiesterase. In words: Inhibition of human PDE5A.
Data set [22] addresses T8, Cone cGMP-specific 3',5'-cyclic phosphodiesterase subunit alpha'. Put plainly: Inhibition of human PDE6C.
Data set [23] has as its target T7, High affinity 3',5'-cyclic-AMP phosphodiesterase 7A. Put plainly: Inhibition of human PDE7A.
The target in data set [24] is T5, High affinity cAMP-specific and IBMX-insensitive 3',5'-cyclic phosphodiesterase 8A. Put plainly: Inhibition of human PDE8A1.
Data set [25] deals with T6, High affinity cGMP-specific 3',5'-cyclic phosphodiesterase 9A. Put plainly: Inhibition of human PDE9A2.
Data set [26] deals with T3, cAMP and cAMP-inhibited cGMP 3',5'-cyclic phosphodiesterase 10A. Put plainly: Inhibition of human PDE10A2.
Data set [27] deals with T4, Dual 3',5'-cyclic-AMP and -GMP phosphodiesterase 11A. Put plainly: Inhibition of human PDE11A.

Sequence of 3',5'-cyclic-AMP phosphodiesterase 4B (Q07343 whole entry): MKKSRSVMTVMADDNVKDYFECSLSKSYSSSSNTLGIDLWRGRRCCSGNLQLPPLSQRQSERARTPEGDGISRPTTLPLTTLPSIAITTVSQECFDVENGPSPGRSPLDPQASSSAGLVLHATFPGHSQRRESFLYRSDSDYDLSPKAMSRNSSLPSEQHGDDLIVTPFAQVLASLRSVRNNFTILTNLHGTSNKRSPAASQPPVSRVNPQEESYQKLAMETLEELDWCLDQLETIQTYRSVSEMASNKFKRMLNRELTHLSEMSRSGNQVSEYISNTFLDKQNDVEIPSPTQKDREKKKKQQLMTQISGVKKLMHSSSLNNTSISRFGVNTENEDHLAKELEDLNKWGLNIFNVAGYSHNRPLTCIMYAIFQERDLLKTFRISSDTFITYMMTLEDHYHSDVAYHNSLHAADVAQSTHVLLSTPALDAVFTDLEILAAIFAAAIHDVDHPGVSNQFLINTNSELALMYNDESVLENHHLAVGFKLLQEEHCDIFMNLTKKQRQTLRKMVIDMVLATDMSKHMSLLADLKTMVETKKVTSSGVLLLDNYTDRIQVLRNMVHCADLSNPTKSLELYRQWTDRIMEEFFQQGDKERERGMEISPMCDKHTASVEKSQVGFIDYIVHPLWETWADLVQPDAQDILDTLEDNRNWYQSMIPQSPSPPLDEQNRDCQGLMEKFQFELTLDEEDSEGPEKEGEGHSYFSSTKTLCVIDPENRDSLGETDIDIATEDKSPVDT
T5 sequence (O60658 whole entry): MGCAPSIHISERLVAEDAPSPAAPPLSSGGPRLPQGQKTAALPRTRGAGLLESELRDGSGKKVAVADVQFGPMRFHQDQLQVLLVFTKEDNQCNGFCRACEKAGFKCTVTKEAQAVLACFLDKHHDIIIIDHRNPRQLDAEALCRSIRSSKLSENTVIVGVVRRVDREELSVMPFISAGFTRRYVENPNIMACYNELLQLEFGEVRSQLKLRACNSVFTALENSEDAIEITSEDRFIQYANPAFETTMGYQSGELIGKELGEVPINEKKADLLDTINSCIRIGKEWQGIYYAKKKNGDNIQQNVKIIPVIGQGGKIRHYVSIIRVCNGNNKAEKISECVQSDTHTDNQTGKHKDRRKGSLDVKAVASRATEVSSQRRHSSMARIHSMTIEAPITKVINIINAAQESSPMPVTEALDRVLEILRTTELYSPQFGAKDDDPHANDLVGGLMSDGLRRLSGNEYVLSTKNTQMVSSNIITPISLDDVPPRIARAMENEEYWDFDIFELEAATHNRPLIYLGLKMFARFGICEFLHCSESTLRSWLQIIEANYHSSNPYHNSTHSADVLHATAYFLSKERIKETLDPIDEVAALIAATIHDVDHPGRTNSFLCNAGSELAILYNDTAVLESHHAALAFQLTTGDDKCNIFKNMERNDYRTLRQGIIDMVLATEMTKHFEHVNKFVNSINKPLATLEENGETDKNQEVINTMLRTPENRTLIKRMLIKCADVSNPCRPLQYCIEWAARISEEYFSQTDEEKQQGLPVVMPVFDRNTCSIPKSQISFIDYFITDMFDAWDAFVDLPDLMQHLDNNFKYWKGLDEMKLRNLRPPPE
Sequence of 3',5'-cyclic-AMP phosphodiesterase 4D (Q08499 whole entry): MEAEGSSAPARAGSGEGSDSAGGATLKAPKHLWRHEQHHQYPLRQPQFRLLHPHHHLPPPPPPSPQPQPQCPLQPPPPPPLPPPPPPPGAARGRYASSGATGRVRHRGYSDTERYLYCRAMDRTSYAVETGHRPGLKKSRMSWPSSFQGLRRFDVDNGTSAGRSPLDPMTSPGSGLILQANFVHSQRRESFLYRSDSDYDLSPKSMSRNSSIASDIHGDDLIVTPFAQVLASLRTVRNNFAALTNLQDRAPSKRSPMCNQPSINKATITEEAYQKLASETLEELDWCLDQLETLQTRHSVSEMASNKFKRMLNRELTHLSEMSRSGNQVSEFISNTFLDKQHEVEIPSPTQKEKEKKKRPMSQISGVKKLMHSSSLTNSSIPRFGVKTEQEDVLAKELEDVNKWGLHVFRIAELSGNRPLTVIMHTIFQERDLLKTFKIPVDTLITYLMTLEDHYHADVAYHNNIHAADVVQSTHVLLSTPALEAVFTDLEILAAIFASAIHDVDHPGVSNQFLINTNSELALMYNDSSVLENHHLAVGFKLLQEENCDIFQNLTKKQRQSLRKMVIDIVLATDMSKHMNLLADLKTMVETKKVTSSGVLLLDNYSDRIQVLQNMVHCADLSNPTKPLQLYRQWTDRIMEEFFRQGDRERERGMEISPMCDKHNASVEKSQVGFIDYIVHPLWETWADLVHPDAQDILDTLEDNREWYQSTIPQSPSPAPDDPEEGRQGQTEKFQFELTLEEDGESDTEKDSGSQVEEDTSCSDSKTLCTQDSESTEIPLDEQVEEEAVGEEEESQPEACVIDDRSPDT
T2 sequence (P54750 whole entry): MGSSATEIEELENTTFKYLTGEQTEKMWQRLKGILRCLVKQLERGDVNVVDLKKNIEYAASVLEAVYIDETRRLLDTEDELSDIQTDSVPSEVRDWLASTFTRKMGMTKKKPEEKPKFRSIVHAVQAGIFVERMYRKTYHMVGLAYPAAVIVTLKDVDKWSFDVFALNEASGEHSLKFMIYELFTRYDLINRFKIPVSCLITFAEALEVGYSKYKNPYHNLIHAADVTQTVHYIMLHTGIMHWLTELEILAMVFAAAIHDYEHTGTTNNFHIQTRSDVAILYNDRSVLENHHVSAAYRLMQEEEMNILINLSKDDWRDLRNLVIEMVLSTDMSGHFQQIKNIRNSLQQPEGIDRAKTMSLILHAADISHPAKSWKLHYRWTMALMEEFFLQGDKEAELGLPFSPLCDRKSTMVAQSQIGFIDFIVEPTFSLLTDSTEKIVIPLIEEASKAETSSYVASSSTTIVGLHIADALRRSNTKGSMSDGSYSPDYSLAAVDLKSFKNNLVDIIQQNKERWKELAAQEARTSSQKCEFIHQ
T1 sequence (O00408 whole entry): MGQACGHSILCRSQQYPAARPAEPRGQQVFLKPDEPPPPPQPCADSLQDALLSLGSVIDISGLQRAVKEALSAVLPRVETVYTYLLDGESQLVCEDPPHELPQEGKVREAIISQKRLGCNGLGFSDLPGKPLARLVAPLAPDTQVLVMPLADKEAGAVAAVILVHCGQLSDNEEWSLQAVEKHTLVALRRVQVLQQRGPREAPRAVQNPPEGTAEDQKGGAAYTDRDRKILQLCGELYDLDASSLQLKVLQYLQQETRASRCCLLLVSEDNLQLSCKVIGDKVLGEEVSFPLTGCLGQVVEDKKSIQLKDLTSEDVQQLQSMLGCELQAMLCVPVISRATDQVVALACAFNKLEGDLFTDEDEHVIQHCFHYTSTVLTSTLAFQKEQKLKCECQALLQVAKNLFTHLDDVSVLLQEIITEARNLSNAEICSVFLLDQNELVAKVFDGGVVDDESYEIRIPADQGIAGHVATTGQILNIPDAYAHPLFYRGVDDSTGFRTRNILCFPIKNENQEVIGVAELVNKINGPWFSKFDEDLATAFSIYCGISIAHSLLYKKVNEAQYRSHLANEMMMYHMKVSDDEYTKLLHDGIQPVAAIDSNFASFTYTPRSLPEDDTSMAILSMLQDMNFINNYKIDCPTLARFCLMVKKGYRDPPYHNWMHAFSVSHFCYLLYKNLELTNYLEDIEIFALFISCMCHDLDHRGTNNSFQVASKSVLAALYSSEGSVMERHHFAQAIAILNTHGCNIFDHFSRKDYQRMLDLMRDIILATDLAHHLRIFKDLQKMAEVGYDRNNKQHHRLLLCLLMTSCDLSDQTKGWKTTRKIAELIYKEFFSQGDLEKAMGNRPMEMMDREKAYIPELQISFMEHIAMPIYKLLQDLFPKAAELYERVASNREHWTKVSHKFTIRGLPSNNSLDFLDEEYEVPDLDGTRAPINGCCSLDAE

`COc1cc2c(cc1OC1CCCC1)CN(C(=O)c1ccc(Cl)cc1)CC2`: the IC50 (usually the concentration that inhibits the measured activity by half) in data set [1] was found to be 92.6 µM; in data set [2], 18.4 µM.
With `COc1ccc(C2CNC(=O)C2)cc1OC1CCCC1` (centres undefined) [ROLIPRAM], the inhibition in vivo (in general, the percentage by which the read-out fell short of the control) at 10 mg/kg in the data set with Rattus norvegicus was determined as 32.5%; with Mus musculus, 41.2%.
Consider `COc1ccc(C(=O)N2CCc3cc(OC)c(OC4CCCC4)cc3C2)cc1OC`, for which the IC50 in data set [3] stood at 28.6 µM; in data set [1], 18.3 µM; in data set [2], 2.85 µM.
The like results for `COc1ccc(C(=O)N2CCc3cc(OC)c(OC4CCCC4)cc3C2)cc1` were, in that order, 31.3 µM, 13.3 µM and 2.38 µM.
Turning to `COc1cc2c(cc1OC1CCCC1)CN(C(=O)c1ccc(OC(F)(F)F)cc1)C(C(=O)N(C)C)C2` (centres undefined), in [2], the IC50 was found to be 8.05 µM.
On to `COc1cc2c(cc1OC1CCCC1)CN(C(=O)c1ccc(OC(F)(F)F)cc1)CC2`, for which the figures for the IC50 in data set [3], in data set [1] and in data set [2] were 9.85 µM, 6.5 µM and 1.05 µM, respectively.
For the compound `COC(=O)C1Cc2cc(OC)c(OC3CCCC3)cc2CN1C(=O)c1ccc(OC(F)(F)F)cc1` (centres undefined), the IC50 in data set [4] was more than 100 µM; in [5] it was more than 100 µM; in [3], 2.12 µM; in data set [1], 18.4 µM; in data set [2] it was 0.88 µM; in [20] it was more than 100 µM. Further, the IC50 in data set [21], in [22], in [23], in data set [24], in data set [25] and in [26] was more than 100 µM throughout. In addition, the IC50 in [27] is more than 100 µM. In addition, the inhibition – broadly, the percentage by which the read-out fell short of the control – in data set [6] came to 3%; in [7], 6%; in [8], 13%; in [9], 6%; in data set [10], 2%; in data set [11], 7%. Moreover, the inhibition in [12] is 12%; in data set [14], 5%; in [15], 9%; in data set [16] it was 4%. For the same compound, in data set [13], the remaining at 4 h stood at 72.8%. The Ratio IC50 worked out at 21 in the data set listed under Homo sapiens [17] and 5 in the data set filed under Homo sapiens [18]. Besides, the remaining at 8 h in data set [19] came to 51.8%. The inhibition in vivo at 10 mg/kg came to 45.3% with Rattus norvegicus and 50.2% in the data set on Mus musculus.
For `COc1cc2c(cc1OC1CCCC1)CN(C(=O)c1ccc(OC(F)(F)F)cc1)C(C(=O)OCc1ccccc1)C2` (centres undefined), in [13], the remaining at 4 h was 84.2%. The remaining at 8 h in data set [19] was determined as 71.6%. In data set [2], this compound came in with an IC50 of more than 50 µM.
With `COc1ccc(C(=O)N2CCc3cc(OC)c(OC4CCCC4)cc3C2)cc1O`, the IC50 in [3] was determined as 36.6 µM; in [1], 18.6 µM; in data set [2], 3.42 µM.
On to `COc1ccc(S(=O)(=O)N2CCc3cc(OC)c(OC4CCCC4)cc3C2)cc1`, for which the values for the IC50 in data set [3], in [1] and in data set [2] were 29.7 µM, 43.6 µM and 3.1 µM, respectively.
In data set [2], `CCN(CC)C(=O)C1Cc2cc(OC)c(OC3CCCC3)cc2CN1C(=O)c1ccc(OC(F)(F)F)cc1` (centres undefined) showed an IC50 of 12.7 µM.
As to `COc1cc2c(cc1OC1CCCC1)CN(S(=O)(=O)c1ccc(Cl)cc1)CC2`, the values for the IC50 in data set [1] and in data set [2] were 134 µM and 11 µM, respectively.
For the compound `CCCCCOC(=O)C1Cc2cc(OC)c(OC3CCCC3)cc2CN1C(=O)c1ccc(OC(F)(F)F)cc1` (centres undefined), the IC50 in data set [2] is more than 50 µM.
In the case of `CCOC(=O)C1Cc2cc(OC)c(OC3CCCC3)cc2CN1C(=O)c1ccc(OC(F)(F)F)cc1` (centres undefined), the remaining at 4 h in [13] was determined as 73.7%. In the data set filed under Homo sapiens [17], the Ratio IC50 was determined as 21. Also, the remaining at 8 h in [19] amounted to 54.9%. Moreover, the figures for the IC50 in [3], in data set [1] and in [2] were 12.6 µM, 32.7 µM and 1.62 µM, respectively.
Take `COc1cc2c(cc1OC1CCCC1)CN(C(=O)c1ccc(OC(F)(F)F)cc1)C(C(=O)O)C2` (centres undefined): the half-maximal inhibitory concentration (IC50) turned out to be 69.3 µM in [3] and 8.35 µM in [2].
Turning to `O=C(Nc1c(Cl)cncc1Cl)c1ccc(OC(F)F)c(OCC2CC2)c1` [ROFLUMILAST], the inhibition in vivo at 10 mg/kg came to 97.6% in the data set with Rattus norvegicus and 98.8% in the data set with Mus musculus. In addition, the IC50 in [3] is 1.21 µM.
Consider `COc1cccc(C(=O)N2CCc3cc(OC)c(OC4CCCC4)cc3C2)c1`, for which the IC50 in [2] is 19.7 µM.
Consider `COc1cc2c(cc1OC1CCCC1)CN(C(=O)c1ccc(O)cc1)CC2`, for which the IC50 was 48.3 µM in data set [3], 16.3 µM in data set [1] and 3.25 µM in data set [2].
As to `COc1cc2c(cc1OC1CCCC1)CN(S(=O)(=O)c1ccc(NC(C)=O)cc1)CC2`, the IC50 in data set [4] is more than 100 µM; in data set [5], more than 100 µM; in data set [3], 5.75 µM; in data set [1], 11.6 µM; in [2], 0.95 µM; in [20], more than 100 µM. Also, the IC50 in data set [21], in data set [22], in data set [23], in [24], in data set [25] and in data set [26] was more than 100 µM throughout. For the same compound, in [27], the IC50 was more than 100 µM. Besides, the inhibition in data set [6] is 3%; in data set [7], 7%; in [8], 11%; in data set [9] it was 4%; in data set [10], 2%; in data set [11], 8%. In addition, the inhibition in [12] is 10%; in [14], 4%; in data set [15], 10%; in data set [16] it was 3%. The inhibition in vivo at 10 mg/kg in the data set on Rattus norvegicus was 37.1%; in the data set with Mus musculus, 44.3%.
The compound `CNC(=O)C1Cc2cc(OC)c(OC3CCCC3)cc2CN1C(=O)c1ccc(OC(F)(F)F)cc1` (centres undefined) returned an IC50 in [2] of 16.4 µM.
`COc1cc2c(cc1OC1CCCC1)CN(C(=O)c1cccc(Cl)c1)CC2`: in data set [2], the IC50 turned out to be 20.5 µM.
The compound `COc1cc2c(cc1OC1CCCC1)CN(C(=O)c1ccc(OC(F)(F)F)cc1)C(C(=O)OC1CCCC1)C2` (centres undefined) came in with an IC50 in data set [2] of more than 50 µM.
